Counter-ions that a name gives are not always drawn.

We go through 27 molecules from patent US11535630B2, “Apelin receptor (APJ) agonists and uses thereof” (Research Triangle Institute, priority 2015, dated 2022).

For this test, the target named is T1, apelin receptor (APJ) (Homo sapiens, UniProt P35414).
T1 sequence (P35414 1-380): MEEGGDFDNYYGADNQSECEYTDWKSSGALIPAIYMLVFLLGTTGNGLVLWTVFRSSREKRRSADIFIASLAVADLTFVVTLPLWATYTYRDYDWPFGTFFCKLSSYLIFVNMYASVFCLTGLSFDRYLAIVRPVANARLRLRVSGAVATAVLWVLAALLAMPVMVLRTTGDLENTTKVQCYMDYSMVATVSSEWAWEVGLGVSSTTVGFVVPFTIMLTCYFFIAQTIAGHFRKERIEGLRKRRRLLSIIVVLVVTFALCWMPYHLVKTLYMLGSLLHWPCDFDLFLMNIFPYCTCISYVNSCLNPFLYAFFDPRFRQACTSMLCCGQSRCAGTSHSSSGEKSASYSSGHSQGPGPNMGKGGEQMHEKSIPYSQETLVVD
The experiment in a line: In vitro apelin agonist activity (methods of Giddings et al., Apelin-13 as positive control). It counts as cell-based. Conditions: in vitro apelin agonist activity, methods of Giddings et al., Apelin-13 as positive control; read-out: EC50 (nM) Ave. From the text:
Characterization of the Apelin Agonist Activity of the Compounds
1:39-47, the contents of which are hereby incorporated by reference in its entirety. Using the methods described in Giddings et al. and Apelin-13 as a positive control.
Broadly, the EC50 is the midpoint of the concentration-response curve. In the case of `CCc1cc(F)ccc1-c1cc(C(=O)N[C@@H](CCN2CCCCC2)CC(=O)NC2CCC2)nn1C1CCCC1` [compound 399, (3S)-N-cyclobutyl-3-{[1-cyclopentyl-5-(2-ethyl-4-fluorophenyl)-1H-pyrazol-3-yl]formamido}-5-(piperidin-1-yl)pentanamide], the EC50 came out at 264 nM.

On to `CC(F)(F)c1ccccc1-c1cc(C(=O)N[C@@H](CCN2CCCCC2)CC(=O)NC2CCC2)nn1C1CCCC1` [compound 400, (3S)-N-cyclobutyl-3-({1-cyclopentyl-5-(2-(1,1-difluoroethyl)phenyl]-1H-pyrazol-3-yl]formamido)-5-(piperidin-1-yl)pentanamide], for which the EC50 is 46 nM.

As to `COc1cccc(OC)c1-c1cc(C(=O)N[C@H](CC(=O)O)Cc2ccccc2)nn1C1CCCC1` [compound 401, (3S)-3-{[1-cyclopentyl-5-(2,6-dimethoxyphenyl)-1H-pyrazol-3-yl]formamido}-4-phenylbutanoic acid], the EC50 is over 10000 nM.

On to `COc1cccc(OC)c1-c1cc(C(=O)N[C@H](CC(=O)Nc2nccs2)Cc2ccccc2)nn1C1CCCC1` [compound 402, (3S)-3-{[1-cyclopentyl-5-(2,6-dimethoxyphenyl)-1H-pyrazol-3-yl]formamido}-4-phenyl-N-(1,3-thiazol-2-yl)butanamide], for which the EC50 was determined as 203 nM.

With `CCc1ccccc1-c1cc(C(=O)N[C@@H](CCN2CCCCC2)CC(=O)O)nn1C1CCCC1` [compound 403, (3S)-3-{[1-cyclopentyl-5-(2-ethylphenyl)-1H-pyrazol-3-yl]formamido}-5-(piperidin-1-yl)pentanoic acid hydrochloride], the half-maximal effective concentration (EC50) was determined as 42 nM.

Take `CCc1ccccc1-c1cc(C(=O)N[C@@H](CCN2CCCC(F)(F)C2)CC(=O)O)nn1C1CCCC1` [compound 404, (3S)-3-{[1-cyclopentyl-5-(2-ethylphenyl)-1H-pyrazol-3-yl]formamido}-5-(3,3-difluoropiperidin-1-yl)pentanoic acid]: the EC50 was found to be 65 nM.

For the molecule `CCc1ccccc1-c1cc(C(=O)N[C@@H](CCN2CCC(F)(F)CC2)CC(=O)O)nn1C1CCCC1` [compound 405, (3S)-3-{[1-cyclopentyl-5-(2-ethylphenyl)-1H-pyrazol-3-yl]formamido}-5-(4,4-difluoropiperidin-1-yl)pentanoic acid], the EC50 was 227 nM.

For the molecule `CCc1ccccc1-c1cc(C(=O)N[C@@H](CCN2CCCCC2)CC(=O)Nc2nccs2)nn1C1CCCC1` [compound 406, (3S)-3-{[1-cyclopentyl-5-(2-ethylphenyl)-1H-pyrazol-3-yl]formamido}-5-(piperidin-1-yl)-N-(1,3-thiazol-2-yl)pentanamide], the EC50 was found to be 22 nM.

On to `O=C(C[C@H](CCN1CCCCC1)NC(=O)c1cc(-c2ccccc2Cl)n(C2CCCC2)n1)NC1CCC1` [compound 407, (3S)-3-{[5-(2-chlorophenyl)-1-cyclopentyl-1H-pyrazol-3-yl]formamido}-N-cyclobutyl-5-(piperidin-1-yl)pentanamide], for which the concentration giving a half-maximal response (EC50) was 162 nM.

For `O=C(C[C@H](CCN1CCCCC1)NC(=O)c1cc(-c2ccccc2C(F)(F)F)n(C2CCCC2)n1)NC1CCC1` [compound 408, (3S)-N-cyclobutyl-3-({1-cyclopentyl-5-[2-(trifluoromethyl)phenyl]-1H-pyrazol-3-yl]formamido)-5-(piperidin-1-yl)pentanamide], the EC50 turned out to be 64 nM.

`CCc1ccccc1-c1cc(C(=O)N[C@@H](CCN2CCC(F)(F)CC2)CC(=O)Nc2nccs2)nn1C1CCCC1` [compound 409, (3S)-3-{[1-cyclopentyl-5-(2-ethylphenyl)-1H-pyrazol-3-yl]formamido}-5-(4,4-difluoropiperidin-1-yl)-N-(1,3-thiazol-2-yl)pentanamide]: the EC50 turned out to be 12.5 nM.

Turning to `CCc1ccccc1-c1cc(C(=O)N[C@@H](CCN2CCC(F)(F)CC2)CC(=O)NC2CCC2)nn1C1CCCC1` [compound 411, (3S)-N-cyclobutyl-3-{[1-cyclopentyl-5-(2-ethylphenyl)-1H-pyrazol-3-yl]formamido}-5-(4,4-difluoropiperidin-1-yl)pentanamide], the EC50 stood at 14.5 nM.

With `CCc1ccccc1-c1cc(C(=O)N[C@@H](CCN2CCCC(F)(F)C2)CC(=O)NC2CCC2)nn1C1CCCC1` [compound 412, (3S)-N-cyclobutyl-3-{[1-cyclopentyl-5-(2-ethylphenyl)-1H-pyrazol-3-yl]formamido}-5-(3,3-difluoropiperidin-1-yl)pentanamide], the EC50 worked out at 5 nM.

Take `O=C(C[C@H](CCN1CCCCC1)NC(=O)c1cc(-c2ccccc2C2CC2)n(C2CCCC2)n1)NC1CCC1` [compound 413, (3S)-N-cyclobutyl-3-{[1-cyclopentyl-5-(2-cyclopropylphenyl)-1H-pyrazol-3-yl]formamido}-5-(piperidin-1-yl)pentanamide]: the EC50 is 49 nM.

Turning to `COc1cccc(OC)c1-c1cc(C(=O)N[C@@H](CCN2CCCCC2)Cc2nnc[nH]2)nn1C1CCCC1` [compound 414], the EC50 was determined as 200 nM.

With `COc1cccc(OC)c1-c1cc(C(=O)N[C@@H](/C=C/c2ccc(F)cc2)CC(=O)NC2CCC2)nn1C1CCCC1` [compound 415, (3R,4E)-N-cyclobutyl-3-{[1-cyclopentyl-5-(2,6-dimethoxyphenyl)-1H-pyrazol-3-yl]formamido}-5-(4-fluorophenyl)pent-4-enamide], the EC50 was 292 nM.

In the case of `COc1cccc(OC)c1-c1cc(C(=O)N[C@@H](CCc2ccc(F)cc2)CC(=O)NC2CCC2)nn1C1CCCC1` [compound 416, (3S)-N-cyclobutyl-3-{[1-cyclopentyl-5-(2,6-dimethoxyphenyl)-1H-pyrazol-3-yl]formamido}-5-(4-fluorophenyl)pentanamide], the EC50 is 606 nM.

As to `COc1cccc(OC)c1-c1cc(C(=O)N[C@@H](CCc2ccc(F)cc2)CC(=O)Nc2nccs2)nn1C1CCCC1` [compound 417, (3S)-3-{[1-cyclopentyl-5-(2,6-dimethoxyphenyl)-1H-pyrazol-3-yl]formamido}-5-(4-fluorophenyl)-N-(1,3-thiazol-2-yl)pentanamide], the concentration giving a half-maximal response (EC50) came to 36 nM.

`COc1cccc(OC)c1-c1cc(C(=O)N[C@@H](/C=C/c2cccnc2)CC(=O)NC2CCC2)nn1C1CCCC1` [compound 418, (3R,4E)-N-cyclobutyl-3-{[1-cyclopentyl-5-(2,6-dimethoxyphenyl)-1H-pyrazol-3-yl]formamido}-5-(pyridin-3-yl)pent-4-enamide]: the EC50 was 664 nM.

For the molecule `COc1cccc(OC)c1-c1cc(C(=O)N[C@@H](/C=C/c2ccncc2)CC(=O)NC2CCC2)nn1C1CCCC1` [compound 419, (3R,4E)-N-cyclobutyl-3-{[1-cyclopentyl-5-(2,6-dimethoxyphenyl)-1H-pyrazol-3-yl]formamido}-5-(pyridin-4-yl)pent-4-enamide], the EC50 is over 10000 nM.

Regarding `COc1cccc(OC)c1-c1cc(C(=O)N[C@@H](CCc2cccnc2)CC(=O)NC2CCC2)nn1C1CCCC1` [compound 420, (3S)-N-cyclobutyl-3-{[1-cyclopentyl-5-(2,6-dimethoxyphenyl)-1H-pyrazol-3-yl]formamido}-5-(pyridin-3-yl)pentanamide], the EC50 was found to be 883 nM.

As to `COc1cccc(OC)c1-c1cc(C(=O)N[C@@H](CCC2CCN(C)CC2)CC(=O)NC2CCC2)nn1C1CCCC1` [compound 421, (3S)-N-cyclobutyl-3-{[1-cyclopentyl-5-(2,6-dimethoxyphenyl)-1H-pyrazol-3-yl]formamido}-5-(1-methylpiperidin-4-yl)pentanamide], the EC50 came out at 3310 nM.

In the case of `O=C(O)C[C@H](CCN1CCC(F)(F)CC1)NC(=O)c1cc(-c2ccccc2C(F)(F)F)n(C2CCCC2)n1` [compound 424, (3S)-3-({1-cyclopentyl-5-[2-(trifluoromethyl)phenyl]-1H-pyrazol-3-yl}formamido)-5-(4,4-difluoropiperidin-1-yl)pentanoic acid], the EC50 was 110 nM.

Turning to `O=C(C[C@H](CCN1CCCC(F)(F)C1)NC(=O)c1cc(-c2ccccc2C(F)(F)F)n(C2CCCC2)n1)NC1CCC1` [compound 425, (3S)-N-cyclobutyl-3-({1-cyclopentyl-5-[2-(trifluoromethyl)phenyl]-1H-pyrazol-3-yl}formamido)-5-(3,3-difluoropiperidin-1-yl)pentanamide], the EC50 was found to be 10.9 nM.

In the case of `O=C(C[C@H](CCN1CCCC(F)(F)C1)NC(=O)c1cc(-c2ccccc2C(F)(F)F)n(C2CCCC2)n1)Nc1nccs1` [compound 426, (3S)-3-({1-cyclopentyl-5-[2-(trifluoromethyl)phenyl]-1H-pyrazol-3-yl}formamido)-5-(3,3-difluoropiperidin-1-yl)-N-(1,3-thiazol-2-yl)pentanamide], the half-maximal effective concentration (EC50) came to 10.6 nM.

For `O=C(C[C@H](CCN1CCCC(F)(F)C1)NC(=O)c1cc(-c2ccccc2C(F)(F)F)n(C2CCCC2)n1)Nc1ncco1` [compound 427, (3S)-3-({1-cyclopentyl-5-[2-(trifluoromethyl)phenyl]-1H-pyrazol-3-yl}formamido)-5-(3,3-difluoropiperidin-1-yl)-N-(1,3-oxazol-2-yl)pentanamide], the EC50 was 8.5 nM.

`CC(F)(F)c1ccccc1-c1cc(C(=O)N[C@@H](CCN2CCCC(F)(F)C2)CC(=O)Nc2nccs2)nn1C1CCCC1` [compound 428, (3S)-3-({1-cyclopentyl-5-[2-(1,1-difluoroethyl)phenyl]-1H-pyrazol-3-yl}formamido)-5-(3,3-difluoropiperidin-1-yl)-N-(1,3-thiazol-2-yl)pentanamide]: the EC50 is 7.5 nM.
